Experimental data as given in ChEMBL document CHEMBL6127068, “Discovery of novel nitrofuran PROTAC-like compounds as dual inhibitors and degraders targeting STING” (Eur J Med Chem, 2024).
Active and inactive are the calls of the source. The calls are words filed in the database; no cut-off is given here.

Assays:
[1] = target: T1, Stimulator of interferon genes protein (Mus musculus) (UniProt Q3TBT3); assay: Inhibition of STING in mouse RAW264.7 cells assessed as reduction in DMXAA-induced CXCL10 mRNA expression at 5 to 20 uM pretreated for 1 hr followed by stimulation with DMXAA for 24 hrs by qRT-CPR analysis; assay type: cell-based; settings: dose 5-20 µM, time 25.0 hrs
T1 sequence (whole entry): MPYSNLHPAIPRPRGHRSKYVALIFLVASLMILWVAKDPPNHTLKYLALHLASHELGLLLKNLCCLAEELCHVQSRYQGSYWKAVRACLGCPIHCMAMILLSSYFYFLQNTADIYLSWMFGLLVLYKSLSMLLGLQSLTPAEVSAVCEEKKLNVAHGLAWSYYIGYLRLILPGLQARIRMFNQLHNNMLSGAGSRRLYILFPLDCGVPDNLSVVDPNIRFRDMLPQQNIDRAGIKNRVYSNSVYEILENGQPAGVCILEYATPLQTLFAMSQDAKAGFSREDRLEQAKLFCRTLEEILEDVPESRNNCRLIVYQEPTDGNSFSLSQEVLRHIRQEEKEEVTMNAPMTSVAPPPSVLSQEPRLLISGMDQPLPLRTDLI

[2] = target: T2, Protein cereblon/Stimulator of interferon genes protein (Homo sapiens, UniProt Q96SW2+Q86WV6); assay: PROTAC activity at CRBN/STING in human THP-1 cells assessed as inhibition of cGAMP-induced IRF3 phosphorylation incubated for 24 hrs followed by stimulation with cGAMP for 24 hrs by western blot analysis; assay type: cell-based; settings: dose 0.3-20 µM, time 48.0 hrs
Target sequence in this assay (Q86WV6 whole entry, looked up): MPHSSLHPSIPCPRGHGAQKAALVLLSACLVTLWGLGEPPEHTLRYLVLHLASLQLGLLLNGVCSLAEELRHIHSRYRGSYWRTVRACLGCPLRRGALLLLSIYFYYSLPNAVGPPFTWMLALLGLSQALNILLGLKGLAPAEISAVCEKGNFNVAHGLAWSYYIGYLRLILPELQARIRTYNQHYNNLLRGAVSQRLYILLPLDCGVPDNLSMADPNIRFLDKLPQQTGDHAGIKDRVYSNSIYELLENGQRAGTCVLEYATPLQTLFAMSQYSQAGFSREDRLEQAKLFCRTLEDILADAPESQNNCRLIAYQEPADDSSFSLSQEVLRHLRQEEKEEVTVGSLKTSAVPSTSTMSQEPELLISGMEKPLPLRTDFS
Target sequence in this assay (Q96SW2 whole entry, looked up): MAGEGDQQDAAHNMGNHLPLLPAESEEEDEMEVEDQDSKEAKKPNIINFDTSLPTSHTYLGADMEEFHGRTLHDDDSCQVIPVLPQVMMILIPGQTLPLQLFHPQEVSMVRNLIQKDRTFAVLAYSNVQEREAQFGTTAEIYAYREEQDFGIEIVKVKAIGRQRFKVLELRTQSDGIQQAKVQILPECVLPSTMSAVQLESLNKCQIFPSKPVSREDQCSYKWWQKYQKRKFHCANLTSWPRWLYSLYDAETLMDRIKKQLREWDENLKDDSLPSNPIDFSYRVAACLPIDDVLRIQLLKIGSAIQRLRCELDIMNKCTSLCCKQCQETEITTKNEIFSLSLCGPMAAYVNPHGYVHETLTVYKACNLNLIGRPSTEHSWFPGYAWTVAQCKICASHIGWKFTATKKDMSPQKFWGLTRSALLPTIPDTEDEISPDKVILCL

[3] = target: T1, Stimulator of interferon genes protein (Mus musculus); assay: Inhibition of STING in mouse RAW264.7 cells assessed as reduction in DMXAA-induced TNF-alpha mRNA expression at 5 to 20 uM pretreated for 1 hr followed by stimulation with DMXAA for 24 hrs by qRT-CPR analysis; assay type: cell-based; settings: dose 5-20 µM, time 25.0 hrs
[4] = target: T2, Protein cereblon/Stimulator of interferon genes protein; assay: PROTAC activity at CRBN/STING in human THP-1 cells assessed as induction of STING degradation incubated for 24 hrs by western blot analysis; assay type: cell-based
Target sequence in this assay (Q96SW2 whole entry): as the sequence (Q96SW2 whole entry, looked up) above
Target sequence in this assay (Q86WV6 whole entry): as the sequence (Q86WV6 whole entry, looked up) above

[5] = Stability of the compound in human plasma assessed as parent compound remaining at 400 ug/ml measured after 24 hrs by HPLC analysis; assay type: ADME, cell-free; settings: at 400 µg/mL, read-out: Stability
[6] = target: Protein cereblon/Signal transducer and activator of transcription 3 (Homo sapiens) (UniProt P40763+Q96SW2); assay: PROTAC activity at CRBN/STAT3 in human THP-1 cells assessed as induction of STAT3 degradation at 2.5 to 40 uM incubated for 24 hrs by western blot analysis; assay type: cell-based; settings: dose 2.5-40 µM
[7] = target: T2, Protein cereblon/Stimulator of interferon genes protein; assay: PROTAC activity at CRBN/STING in human THP-1 cells assessed as induction of STING degradation at 3 uM pretreated with proteasome inhibitor, MG132 for 1 hr followed by incubation with compound for 24 hrs by western blot analysis; assay type: cell-based
Target sequence in this assay (Q86WV6 whole entry, looked up): as above
Target sequence in this assay (Q96SW2 whole entry, looked up): as the sequence (Q96SW2 whole entry, looked up) above

[8] = target: T3, Protein cereblon/Stimulator of interferon genes protein (Mus musculus) (UniProt Q3TBT3+Q8C7D2); assay: PROTAC activity at CRBN/STING in mouse RAW264.7 cells assessed as induction of STING degradation at 0.33 to 30 uM incubated for 24 hrs by western blot analysis; assay type: cell-based; settings: dose 0.33-30 µM
[9] = target: T2, Protein cereblon/Stimulator of interferon genes protein; assay: PROTAC activity at CRBN/STING in human THP-1 cells assessed as inhibition of cGAMP-induced CXCL10 mRNA expression incubated for 1 hr followed by stimulation with cGAMP for 24 hrs by qRT-PCR analysis; assay type: cell-based; settings: dose 5-20 µM, time 25.0 hrs
Target sequence in this assay (Q86WV6 whole entry, looked up): as the sequence (Q86WV6 whole entry, looked up) above
Target sequence in this assay (Q96SW2 whole entry, looked up): as the sequence (Q96SW2 whole entry, looked up) above

[10] = target: T2, Protein cereblon/Stimulator of interferon genes protein; assay: PROTAC activity at CRBN/STING in human THP-1 cells assessed as inhibition of cGAMP-induced TNF-alpha mRNA expression incubated for 1 hr followed by stimulation with cGAMP for 24 hrs by qRT-PCR analysis; assay type: cell-based; settings: dose 5-20 µM, time 25.0 hrs
Target sequence in this assay (Q86WV6 whole entry, looked up): as the sequence (Q86WV6 whole entry, looked up) above
Target sequence in this assay (Q96SW2 whole entry, looked up): as the sequence (Q96SW2 whole entry, looked up) above

Mus musculus [11] = assay: Anti-inflammatory activity against cisplatin-induced acute kidney injury C57BL/6J mouse model assessed as decrease in kidney damage at 25 to 50 mg/kg by Hematoxylin-Eosin staining based microscopic analysis; assay type: functional, organism-based; settings: dose 25-50 mg/kg
Mus musculus [12] = assay: Anti-inflammatory activity against cisplatin-induced acute kidney injury C57BL/6J mouse model assessed as decrease in plasma BUN level at 25 to 50 mg/kg; assay type: functional, organism-based; settings: dose 25-50 mg/kg
[13] = target: T3, Protein cereblon/Stimulator of interferon genes protein (Mus musculus); assay: In vivo inhibition of STING signaling pathway in C57BL/6J mouse assessed as inhibition of cisplatin-induced IFN-beta mRNA expression in kidney at 25 to 50 mg/kg by qPCR analysis; assay type: functional, organism-based; settings: dose 25-50 mg/kg
[14] = Toxicity against cisplatin-induced acute kidney injury C57BL/6J mouse model assessed as effect on heart morphology at 25 to 50 mg/kg by Hematoxylin-Eosin staining based microscopic analysis; assay type: organism-based; settings: in vivo, dose 25-50 mg/kg
[15] = target: T3, Protein cereblon/Stimulator of interferon genes protein (Mus musculus); assay: In vivo inhibition of STING signaling pathway in C57BL/6J mouse assessed as inhibition of cisplatin-induced CXCL10 mRNA expression in kidney at 25 to 50 mg/kg by qPCR analysis; assay type: functional, organism-based; settings: dose 25-50 mg/kg
[16] = target: T2, Protein cereblon/Stimulator of interferon genes protein; assay: PROTAC activity at CRBN/STING in human THP-1 cells assessed as induction of STING degradation at 10 uM incubated for 24 hrs followed by replacement with fresh medium without compound and measured after 24 hrs by western bot analysis; assay type: cell-based
Target sequence in this assay (Q86WV6 whole entry, looked up): as the sequence (Q86WV6 whole entry, looked up) above
Target sequence in this assay (Q96SW2 whole entry, looked up): as the sequence (Q96SW2 whole entry, looked up) above

Mus musculus [17] = assay: Anti-inflammatory activity against cisplatin-induced acute kidney injury C57BL/6J mouse model assessed as decrease in plasma uric acid level at 25 to 50 mg/kg; assay type: functional, organism-based; settings: dose 25-50 mg/kg
THP-1 = assay: Effect on STING mRNA expression in human THP-1 cells at 10 uM incubated for 12 to 48 hrs by qRT-PCR analysis; assay type: functional, cell-based; settings: time 12-48 hrs
[18] = target: T2, Protein cereblon/Stimulator of interferon genes protein; assay: PROTAC activity at CRBN/STING in human THP-1 cells assessed as induction of STING degradation at 10 uM measured after 9 hrs by western blot analysis; assay type: cell-based
Target sequence in this assay (Q86WV6 whole entry, looked up): as the sequence (Q86WV6 whole entry, looked up) above
Target sequence in this assay (Q96SW2 whole entry, looked up): as the sequence (Q96SW2 whole entry, looked up) above

[19] = target: T2, Protein cereblon/Stimulator of interferon genes protein; assay: PROTAC activity at CRBN/STING in human THP-1 cells assessed as induction of STING degradation at 3 uM pretreated with lysosome inhibitor, bafilomycin for 1 hr followed by incubation with compound for 24 hrs by western blot analysis; assay type: cell-based
[20] = target: T2, Protein cereblon/Stimulator of interferon genes protein; assay: PROTAC activity at CRBN/STING in human THP-1 cells assessed as induction of STING degradation at 10 uM incubated for 24 hrs by western blot analysis; assay type: cell-based

T3 sequence (Q8C7D2 whole entry, looked up, one chain of several): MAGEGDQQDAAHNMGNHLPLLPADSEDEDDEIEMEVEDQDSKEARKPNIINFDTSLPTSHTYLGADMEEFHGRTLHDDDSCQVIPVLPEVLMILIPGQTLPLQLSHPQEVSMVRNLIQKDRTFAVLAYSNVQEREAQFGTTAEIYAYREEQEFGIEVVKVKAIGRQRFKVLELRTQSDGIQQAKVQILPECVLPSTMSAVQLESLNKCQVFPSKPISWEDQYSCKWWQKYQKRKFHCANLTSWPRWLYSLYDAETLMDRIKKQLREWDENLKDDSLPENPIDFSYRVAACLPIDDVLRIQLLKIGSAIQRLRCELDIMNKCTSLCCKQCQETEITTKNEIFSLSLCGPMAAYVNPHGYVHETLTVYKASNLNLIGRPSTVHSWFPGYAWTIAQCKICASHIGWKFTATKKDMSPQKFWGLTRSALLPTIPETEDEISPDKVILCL
Chain of Protein cereblon/Signal transducer and activator of transcription 3 (Homo sapiens) (P40763 2-770 limits assumed): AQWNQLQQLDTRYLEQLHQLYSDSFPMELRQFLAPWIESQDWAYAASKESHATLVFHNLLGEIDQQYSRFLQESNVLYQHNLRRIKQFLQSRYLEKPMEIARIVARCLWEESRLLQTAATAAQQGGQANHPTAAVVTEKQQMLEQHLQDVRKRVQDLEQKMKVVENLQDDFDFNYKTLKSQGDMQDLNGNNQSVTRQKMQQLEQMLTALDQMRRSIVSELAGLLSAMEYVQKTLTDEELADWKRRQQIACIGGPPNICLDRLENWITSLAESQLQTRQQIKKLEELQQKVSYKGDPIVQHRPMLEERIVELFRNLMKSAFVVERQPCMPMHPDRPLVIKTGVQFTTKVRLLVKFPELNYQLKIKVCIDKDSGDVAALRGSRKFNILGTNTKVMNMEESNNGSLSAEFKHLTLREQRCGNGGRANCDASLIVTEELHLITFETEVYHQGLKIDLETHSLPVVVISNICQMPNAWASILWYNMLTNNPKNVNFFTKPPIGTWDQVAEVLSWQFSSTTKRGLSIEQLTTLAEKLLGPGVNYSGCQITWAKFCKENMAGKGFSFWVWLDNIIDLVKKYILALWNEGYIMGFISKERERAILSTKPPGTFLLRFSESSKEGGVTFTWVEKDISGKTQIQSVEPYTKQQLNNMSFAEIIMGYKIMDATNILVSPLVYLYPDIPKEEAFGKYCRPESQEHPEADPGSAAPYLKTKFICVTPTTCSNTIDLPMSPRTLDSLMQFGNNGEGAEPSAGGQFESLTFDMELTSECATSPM
Chain of Protein cereblon/Signal transducer and activator of transcription 3 (Homo sapiens) (Q96SW2 whole entry partner): as the sequence (Q96SW2 whole entry, looked up) above

## O=C1CCC(N2C(=O)c3cccc(OCc4cn(CCCCCC(=O)OCCc5ccc(NC(=O)c6ccc([N+](=O)[O-])o6)cc5)nn4)c3C2=O)C(=O)N1 (stereo unspecified)
[1]
  inhibition: Dose-Dependent Effect
[2]
  Activity: Dose-Dependent Effect
[3]
  inhibition: Dose-Dependent Effect
[4]
  DC50: 2.58 µM
[5]
  remaining at 24 h, 400 ug/ml: ~66%
[6]
  Activity: inactive
[7]
  Activity: Active
[8]
  Activity: inactive
[9]
  Activity: Dose-Dependent Effect
[10]
  Activity: Dose-Dependent Effect
Mus musculus [11]
  Activity: Active
Mus musculus [12]
  Activity: Active
[13]
  inhibition: Active
[14]
  Activity: Non-Toxic
[15]
  inhibition: Active
[16]
  Activity: inactive
Mus musculus [17]
  Activity: Active
THP-1
  Activity: inactive
[18]
  Activity: Active
[19]
  Activity: inactive
[20]
  Activity: 82%
